Experimental data from patent US11939319B2, “Pyridinyl and pyrazinyl-(asa)indolsulfonamides” (UCB Pharma GmbH, priority 2018, dated 2024).

How the values were obtained:
GPR17 [1] = molecular target: T1, GPR17 (Homo sapiens, UniProt Q13304); conditions: WO 2005/103291; cited from earlier work
Target sequence in this assay (Q13304 whole entry, species assumed): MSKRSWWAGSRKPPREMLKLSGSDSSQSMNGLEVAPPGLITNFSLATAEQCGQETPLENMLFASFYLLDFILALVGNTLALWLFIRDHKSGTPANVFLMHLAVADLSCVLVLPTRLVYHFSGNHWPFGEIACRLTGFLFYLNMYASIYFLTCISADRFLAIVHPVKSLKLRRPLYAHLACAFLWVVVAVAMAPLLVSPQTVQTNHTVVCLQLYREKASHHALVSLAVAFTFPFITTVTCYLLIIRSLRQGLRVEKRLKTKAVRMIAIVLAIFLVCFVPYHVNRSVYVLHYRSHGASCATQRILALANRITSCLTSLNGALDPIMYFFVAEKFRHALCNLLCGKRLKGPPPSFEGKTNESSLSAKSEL

GPR17 [2] = molecular target: T1, GPR17; test: Calcium mobilization functional assay (Ca2+ assay) in CHO hGPR17 cells; format: cell-based; parameters: host or cells: Flp-In T-REx CHO cells, expression induced with doxycycline; conditions: inhibition of 50 nM MDL29,951 (GPR17 agonist), activity range, read-out: Ca^2+ assay pIC50 (converted)
Experimental: (§1) Flp-In T-REx CHO cells stably expressing human GPR17 receptor (CHO hGPR17) from Evi Kostenis' lab (Bonn University, Germany) were cultured at 37° C. in a humidified atmosphere of 5% CO2. Cells were grown in DMEM with Nutrient Mixture F-12 supplemented with hygromycin B (500 μg/ml) and blasticidin (30 μg/ml). Expression from the Flp-In locus was induced by treatment with doxycycline (1 μg/ml) for 16-20 h prior assays.
GPR17 is a G-protein coupled receptor. GPR17 activation triggers Gq-type G-protein signaling resulting in endoplasmic reticulum calcium (Ca^2+) stores release in cytosol which can be measured using Calcium 5 dye, a fluorescent indicator dye of cytosolic Ca^2+ levels. The compounds of the present invention were assessed either in the Ca^2+ assay or in the GPR17 cAMP assay, described further below.
CHO hGPR17 were defrosted and seeded at a density of 20,000 cells per well into black 384-well plates with clear bottom. Cells were incubated overnight at 37° C. in a humidified atmosphere of 5% CO2. Sixteen to twenty hours after seeding, CHO hGPR17 were loaded for 60 min with Calcium 5 dye, a cytosolic Ca^2+ indicator fluorescent dye, according to manufacturer's instructions. Fluorescent signal relative to cytosolic Ca^2+ concentration was recorded over time at room temperature in FLIPR Tetra reader. Cells were first incubated for 30 minutes at room temperature in HBSS Hepes buffer pH 7.4 containing increasing concentrations of test compounds (typically 10^−11 M to 10^−6M). Then, 50 nM MDL29,951, a GPR17 agonist, was added to the cells. Inhibitory effects of varying concentrations test compounds were measured and resulting pIC50S were determined. All incubations were performed in duplicate and results were compared to a concentration response curve of GPR17 agonist and antagonist reference compounds. Analysis and curve fitting were performed in ActivityBase XE using XLfit 4-parameter logistic equation y=A+((B−A)/(1+((C/x)^D))) where A, B, C and D stand for minimum y, maximum y, IC50 and slope, respectively.
The activities of the Example compounds tested are depicted in the table 6 in Section B-IIB below. The activity ranges A, B and C refer to pIC50 values in the Ca^2+ assay as follows: “A”: pIC50 6.5≤x<7.5, “B”: pIC50 7.5≤x<8.5, “C”: 8.5≤pIC50
Target sequence in this assay (Q13304 29-367 limits assumed): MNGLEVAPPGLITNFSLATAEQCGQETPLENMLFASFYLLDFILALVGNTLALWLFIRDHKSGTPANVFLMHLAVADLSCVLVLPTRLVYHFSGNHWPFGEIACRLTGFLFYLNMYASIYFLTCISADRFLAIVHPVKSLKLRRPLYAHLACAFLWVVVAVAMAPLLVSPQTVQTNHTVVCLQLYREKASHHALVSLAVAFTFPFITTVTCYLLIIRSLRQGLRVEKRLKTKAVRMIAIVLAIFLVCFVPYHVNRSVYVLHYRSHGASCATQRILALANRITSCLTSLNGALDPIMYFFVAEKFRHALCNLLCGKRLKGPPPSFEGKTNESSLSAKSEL

GPR17 [3] = molecular target: T1, GPR17; test: cAMP accumulation functional assay (HTRF) in CHO hGPR17 cells; format: cell-based; parameters: host or cells: Flp-In T-REx CHO cells, expression induced with doxycycline; conditions: Schild analysis against MDL29,951, 5 μM forskolin, activity range, read-out: cAMP assay pA2 (converted)
Experimental: as §1
Target sequence in this assay (Q13304 29-367 limits assumed): as above
GPR17 activation can also recruit Gi-type G-protein signaling, resulting in a decrease of intracellular cyclic adenosine monophosphate (cAMP). Intracellular cAMP changes can be measured using the HTRF cAMP dynamic assay kit from CisBio (Codolet, France). Using homogenous time-resolved fluorescence technology (HTRF), the assay is based on competition between native cAMP produced by cells and cAMP labelled with the dye d2. The tracer binding was determined by an anti-cAMP antibody labeled with cryptate.
CHO hGPR17 were detached with PBS containing EDTA and dispatched in black 384-well plates with 5,000 cells per well. Cells were first incubated for 30 minutes at room temperature in HBSS Hepes (pH 7.4) containing vehicle or varying concentrations of test GPR17 antagonist/inverse agonist compounds. Then, a dose response curve of MDL29,951 GPR17 agonist (typically from 10^−5M to 10^−10M) was added on vehicle and on each test GPR17 antagonist/inverse agonist compound concentration in a final volume of 20 μL HBSS Hepes buffer (pH 7.4) containing 1% DMSO, 5 μM forskolin and 0.1 mM IBMX. After 60 minutes incubation at room temperature, the reaction is terminated and the cells lysed by adding the d2 detection reagent and the cryptate reagent in 10 μL lysis buffer each according to manufacturer's instructions. After 60 minutes incubation, changes in cAMP concentrations are measured according to manufacturer's instructions using an Envision plate reader with laser excitation. All incubations were performed in duplicate. Data was analyzed using GraphPad Prism software using the 4-parameter logistic equation to measure MDL29,951 pEC50s in absence and presence of GPR17 antagonist/inverse agonist test compounds. Dose ratio (DR) were plotted against antagonist concentrations and Schild analysis provided estimated affinity pA2 of GPR17 antagonist/inverse agonist test compounds.
The activities of the Example compounds tested are depicted in the table below. The activity ranges A, B and C refer to pA2 values in the cAMP assay as follows: “A”: pA2 6.5≤x<7.5, “B”: pA2 7.5≤x<8.5, “C”: 8.5≤pA2.

Row | SMILES | amounts needed in the assays (GPR17 activating ligand) (GPR17 [1]) | IC50 (GPR17 [2]) | Kb (GPR17 [3])
1 | NCC(=O)CCC(=O)O [Example 5-ALA, 5 amino levulinic acid] | three digit micromolar range | – | –
2 | COc1nc(OC)c(NS(=O)(=O)c2c[nH]c3cc(Cl)ccc23)cc1F [Example I-6, 6-chloro-N-(5-fluoro-2,6-dimethoxypyridin-3-yl)-1H-indole-3-sulfonamide] | – | ≤ 3.16 nM | ≤ 3.16 nM
3 | Cc1nc(F)c(NS(=O)(=O)c2c[nH]c3cc(Cl)ccc23)cc1F [Example I-7, 6-chloro-N-(2,5-difluoro-6-methylpyridin-3-yl)-1H-indole-3-sulfonamide] | – | 3.16 to 31.6 nM | 3.16 to 31.6 nM
4 | COc1nc(Br)cnc1NS(=O)(=O)c1c[nH]c2cc(Cl)ccc12 [Example I-10, N-(5-bromo-3-methoxypyrazin-2-yl)-6-chloro-1H-indole-3-sulfonamide] | – | ≤ 3.16 nM | ≤ 3.16 nM
5 | COc1ccc(NS(=O)(=O)c2c[nH]c3cc(Cl)ccc23)cn1 [Example I-15, 6-chloro-N-(6-methoxypyridin-3-yl)-1H-indole-3-sulfonamide] | – | 31.6 to 316 nM | 31.6 to 316 nM
6 | O=S(=O)(Nc1cnc(Br)cn1)c1c[nH]c2cc(Cl)ccc12 [Example I-18, N-(5-bromopyrazin-2-yl)-6-chloro-1H-indole-3-sulfonamide] | – | 31.6 to 316 nM | 31.6 to 316 nM
7 | O=S(=O)(Nc1ccc(I)nc1)c1c[nH]c2cc(Cl)ccc12 [Example I-21, 6-chloro-N-(6-iodopyridin-3-yl)-1H-indole-3-sulfonamide] | – | 31.6 to 316 nM | 3.16 to 31.6 nM
8 | O=S(=O)(Nc1cnc(Cl)cc1F)c1c[nH]c2cc(Cl)ccc12 [Example I-25, 6-chloro-N-(6-chloro-4-fluoropyridin-3-yl)-1H-indole-3-sulfonamide] | – | 3.16 to 31.6 nM | ≤ 3.16 nM
9 | COc1nc(Cl)c(F)cc1NS(=O)(=O)c1c[nH]c2nc(Cl)ccc12 [Example I-32, 6-chloro-N-(6-chloro-5-fluoro-2-methoxypyridin-3-yl)-1H-pyrrolo[2,3-b]pyridine-3-sulfonamide] | – | ≤ 3.16 nM | ≤ 3.16 nM
10 | COc1nc(F)c(NS(=O)(=O)c2c[nH]c3nc(Cl)ccc23)cc1F [Example I-33, 6-chloro-N-(2,5-difluoro-6-methoxypyridin-3-yl)-1H-pyrrolo[2,3-b]pyridine-3-sulfonamide] | – | 31.6 to 316 nM | 31.6 to 316 nM
11 | COc1nc(OC)c(NS(=O)(=O)c2c[nH]c3nc(Cl)ccc23)cc1F [Example I-34, 6-chloro-N-(5-fluoro-2,6-dimethoxypyridin-3-yl)-1H-pyrrolo[2,3-b]pyridine-3-sulfonamide] | – | 3.16 to 31.6 nM | 3.16 to 31.6 nM
12 | NCc1[nH]cc(CCC(=O)O)c1CC(=O)O [PBG, porphobilinogen] | mM range | – | –
